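1) Cells in 96-well plates. 2) Compound, 48 h, 5 concentrations. 3) Linear interpolation between surrounding doses. 4) Unreached endpoint = highest concentration. TGI marks complete inhibition of growth.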
Key:
Experiment in all cases: NCI anticancer screen, dose series, 48 h
OVCAR-3 ovarian = test system: OVCAR-3 ovarian
UO-31 renal = test system: UO-31 renal
IGROV1 ovarian = test system: IGROV1 ovarian
MDA-MB-435 = test system: MDA-MB-435
U251 CNS = test system: U251 CNS
NCI-H226 lung = test system: NCI-H226 lung
SN12C renal = test system: SN12C renal
T-47D breast = test system: T-47D breast
SK-MEL-2 melanoma = test system: SK-MEL-2 melanoma
BT-549 breast = test system: BT-549 breast
SF-539 CNS = test system: SF-539 CNS
CAKI-1 renal = test system: CAKI-1 renal
MDA-N = test system: MDA-N
HCC-2998 colon = test system: HCC-2998 colon
A549 NSCLC = test system: A549 NSCLC

SMILES | TGI (OVCAR-3 ovarian) | TGI (UO-31 renal) | TGI (IGROV1 ovarian) | TGI (MDA-MB-435) | TGI (U251 CNS) | TGI (NCI-H226 lung) | TGI (SN12C renal) | TGI (T-47D breast) | TGI (SK-MEL-2 melanoma) | TGI (BT-549 breast) | TGI (SF-539 CNS) | TGI (CAKI-1 renal) | TGI (MDA-N) | TGI (HCC-2998 colon) | TGI (A549 NSCLC)
CCN1CCC(O)(c2ccc(O)cc2)C(C(=O)c2ccc(O)cc2)C1 (centres undefined) | 32.8 µM | 36 µM | 44 µM | 33.3 µM | > 100 µM | 61.9 µM | 42 µM | 32.9 µM | – | – | – | – | – | – | –
O=[N+]([O-])C(=C/c1cccs1)/C(=C\c1cccs1)[N+](=O)[O-] | 21.7 µM | – | – | 2.23 µM | – | 9.84 µM | – | 7.74 µM | 6.46 µM | 4.27 µM | 0.417 µM | 1.41 µM | 2.65 µM | 2.58 µM | 9.59 µM
